Reference: ChEMBL document CHEMBL1201861, “Genomics of Drug Sensitity in Cancer screening data, Wellcome Trust Sanger Institute”

Experiments:
Test in all cases: cells
[1] = test system: C3A; type: functional, cell-based, Homo sapiens; details: Homo sapiens, C3A;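 further: growth inhibition of C3A human cells, quantified with a cell viability readout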
Description: SANGER: Inhibition of human C3A cell growth in a cell viability assay.

[2] = test system: SK-MES-1; type: functional, cell-based, Homo sapiens; details: Homo sapiens, SK-MES-1;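 further: growth inhibition of human SK-MES-1 cells, read out with a cell viability assay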
Description: SANGER: Inhibition of human SK-MES-1 cell growth in a cell viability assay.

[3] = test system: 769-P; type: functional, cell-based, Homo sapiens; details: Homo sapiens, 769-P
Description: SANGER: Inhibition of human 769-P cell growth in a cell viability assay.

[4] = test system: HCT-116; type: functional, cell-based, Homo sapiens; details: Homo sapiens, HCT-116
Description: SANGER: Inhibition of human HCT-116 cell growth in a cell viability assay.

[5] = test system: NCI-H441; type: functional, cell-based; details: Homo sapiens;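 further: growth inhibition of NCI-H441 cells, read out with a cell viability assay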
Description: SANGER: Inhibition of human NCI-H441 cell growth in a cell viability assay.

[6] = test system: SK-MEL3; type: functional, cell-based, Homo sapiens, SK-MEL-3; details: Homo sapiens, SK-MEL3;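 further: growth inhibition of human SK-MEL-3 cells, read out with a cell viability assay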
Description: SANGER: Inhibition of human SK-MEL-3 cell growth in a cell viability assay.

[7] = test system: COLO-678; type: functional, cell-based, Homo sapiens; details: Homo sapiens, COLO-678
Description: SANGER: Inhibition of human COLO-678 cell growth in a cell viability assay.

[8] = test system: COLO-320-HSR; type: functional, cell-based; details: Homo sapiens;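 further: growth inhibition of COLO-320-HSR cells, determined with a cell viability assay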
Description: SANGER: Inhibition of human COLO-320-HSR cell growth in a cell viability assay.

[9] = test system: SK-MEL-30; type: functional, cell-based; details: Homo sapiens;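 further: growth inhibition of SK-MEL-30 cells, determined with a cell viability assay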
Description: SANGER: Inhibition of human SK-MEL-30 cell growth in a cell viability assay.

[10] = test system: KU-19-19; type: functional, cell-based, Homo sapiens; details: Homo sapiens, KU-19-19
Description: SANGER: Inhibition of human KU-19-19 cell growth in a cell viability assay.

[11] = test system: NB69; type: functional, cell-based, Homo sapiens; details: Homo sapiens, NB69;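 further: growth inhibition of NB69 cells, determined by a cell viability assay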
Description: SANGER: Inhibition of human NB69 cell growth in a cell viability assay.

[12] = test system: T47D; type: functional, cell-based, Homo sapiens; details: Homo sapiens, T47D;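 further: growth inhibition of human T47D cells, measured with a cell viability assay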
Description: SANGER: Inhibition of human T47D cell growth in a cell viability assay.

[13] = test system: Detroit 562; type: functional, cell-based, Homo sapiens; details: Homo sapiens, Detroit 562;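 further: growth inhibition of human Detroit 562 cells, read out by a cell viability assay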
Description: SANGER: Inhibition of human Detroit562 cell growth in a cell viability assay.

[14] = test system: FTC-133; type: functional, cell-based, Homo sapiens; details: Homo sapiens, FTC-133
[15] = test system: VM-CUB-1; type: functional, cell-based; details: Homo sapiens;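 further: cell viability assay measuring growth inhibition of the human VM-CUB-1 cell line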
Description: SANGER: Inhibition of human VM-CUB-1 cell growth in a cell viability assay.

[16] = test system: L-363; type: functional, cell-based; details: Homo sapiens
Description: SANGER: Inhibition of human L-363 cell growth in a cell viability assay.

[17] = test system: EW-3; type: functional, cell-based; details: Homo sapiens;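 further: cell viability assay read-out, IC50 reflects inhibition of growth of the EW-3 cells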
Description: SANGER: Inhibition of human EW-3 cell growth in a cell viability assay.

[18] = test system: GOTO; type: functional, cell-based, Homo sapiens; details: Homo sapiens, GOTO;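 further: growth inhibition of GOTO cells, read out by a cell viability assay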
Description: SANGER: Inhibition of human GOTO cell growth in a cell viability assay.

[19] = test system: D-542MG; type: functional, cell-based, Homo sapiens; details: Homo sapiens, D-542MG
Description: SANGER: Inhibition of human D-542MG cell growth in a cell viability assay.

[20] = test system: OMC-1; type: functional, cell-based, Homo sapiens; details: Homo sapiens, OMC-1;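 further: growth inhibition of the OMC-1 cell line, measured by a cell viability assay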
Description: SANGER: Inhibition of human OMC-1 cell growth in a cell viability assay.

[21] = test system: 5637; type: functional, cell-based, Homo sapiens; details: Homo sapiens
Description: SANGER: Inhibition of human 5637 cell growth in a cell viability assay.

[22] = test system: HT-144; type: functional, cell-based, Homo sapiens; details: Homo sapiens, HT-144
Description: SANGER: Inhibition of human HT-144 cell growth in a cell viability assay.

[23] = test system: SW1088; type: functional, cell-based, Homo sapiens; details: Homo sapiens, SW1088;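 further: growth inhibition of human SW1088 cells, read out by a cell viability assay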
Description: SANGER: Inhibition of human SW1088 cell growth in a cell viability assay.

[24] = test system: L-428; type: functional, cell-based; details: Homo sapiens
Description: SANGER: Inhibition of human L-428 cell growth in a cell viability assay.

[25] = test system: NB6; type: functional, cell-based, Homo sapiens; details: Homo sapiens, NB6;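 further: growth inhibition of NB6 cells, read out by a cell viability assay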
Description: SANGER: Inhibition of human NB6 cell growth in a cell viability assay.

[26] = test system: HPAF-II; type: functional, cell-based, Homo sapiens; details: Homo sapiens, HPAF-II;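 further: growth inhibition of HPAF-II cells, read out with a cell viability assay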
Description: SANGER: Inhibition of human HPAF-II cell growth in a cell viability assay.

[27] = test system: NCI-H69; type: functional, cell-based; details: Homo sapiens;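 further: growth inhibition of the cell line, read out with a cell viability assay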
Description: SANGER: Inhibition of human NCI-H69 cell growth in a cell viability assay.

[28] = test system: UMUC3; type: functional, cell-based, Homo sapiens; details: Homo sapiens, UMUC3;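 further: growth inhibition of human UM-UC-3 cells, read out with a cell viability assay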
Description: SANGER: Inhibition of human UM-UC-3 cell growth in a cell viability assay.

[29] = test system: LS-513; type: functional, cell-based, Homo sapiens; details: Homo sapiens, LS-513
Description: SANGER: Inhibition of human LS-513 cell growth in a cell viability assay.

[30] = test system: CAS-1; type: functional, cell-based, Homo sapiens; details: Homo sapiens, CAS-1;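 further: growth inhibition of CAS-1 cells, measured with a cell viability assay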
Description: SANGER: Inhibition of human CAS-1 cell growth in a cell viability assay.

[31] = test system: NB10; type: functional, cell-based, Homo sapiens; details: Homo sapiens, NB10;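 further: growth inhibition of NB10 cells, read out by a cell viability assay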
Description: SANGER: Inhibition of human NB10 cell growth in a cell viability assay.

[32] = test system: NCI-H526; type: functional, cell-based; details: Homo sapiens;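 further: growth inhibition of the human NCI-H526 cell line, measured by a cell viability assay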
Description: SANGER: Inhibition of human NCI-H526 cell growth in a cell viability assay.

[33] = test system: SK-MEL-24; type: functional, cell-based; details: Homo sapiens;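 further: growth inhibition read out by a cell viability assay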
Description: SANGER: Inhibition of human SK-MEL-24 cell growth in a cell viability assay.

[34] = test system: GAK; type: functional, cell-based, Homo sapiens; details: Homo sapiens, GAK;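 further: cell growth inhibition read out by a cell viability assay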
Description: SANGER: Inhibition of human GAK cell growth in a cell viability assay.

[35] = test system: LB996-RCC; type: functional, cell-based; details: Homo sapiens
Description: SANGER: Inhibition of human LB996-RCC cell growth in a cell viability assay.

[36] = test system: SW1463; type: functional, cell-based, Homo sapiens; details: Homo sapiens, SW1463;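 further: growth inhibition of SW1463 cells, determined with a cell viability assay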
Description: SANGER: Inhibition of human SW1463 cell growth in a cell viability assay.

[37] = test system: NB13; type: functional, cell-based, Homo sapiens; details: Homo sapiens, NB13;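 further: cell viability readout measuring growth inhibition of human NB13 cells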
Description: SANGER: Inhibition of human NB13 cell growth in a cell viability assay.

[38] = test system: SW1710; type: functional, cell-based, Homo sapiens; details: Homo sapiens, SW1710;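 further: growth inhibition of SW1710 cells, determined with a cell viability assay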
Description: SANGER: Inhibition of human SW1710 cell growth in a cell viability assay.

[39] = test system: CW-2; type: functional, cell-based, Homo sapiens; details: Homo sapiens, CW-2;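 further: growth inhibition of CW-2 cells, read out by a cell viability assay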
Description: SANGER: Inhibition of human CW-2 cell growth in a cell viability assay.

[40] = test system: HCC38; type: functional, cell-based, Homo sapiens; details: Homo sapiens, HCC38;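 further: cell viability assay on the human HCC38 cell line, with IC50 marking the concentration that inhibits cell growth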
Description: SANGER: Inhibition of human HCC38 cell growth in a cell viability assay.

[41] = test system: HOS; type: functional, cell-based, Homo sapiens; details: Homo sapiens, HOS;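 further: growth inhibition of human HOS cells, read out with a cell viability assay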
Description: SANGER: Inhibition of human HOS cell growth in a cell viability assay.

[42] = test system: ML-2; type: functional, cell-based; details: Homo sapiens;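 further: growth inhibition of ML-2 cells, measured with a cell viability readout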
Description: SANGER: Inhibition of human ML-2 cell growth in a cell viability assay.

[43] = test system: NCI-H1650; type: functional, cell-based, Homo sapiens; details: Homo sapiens, NCI-H1650;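 further: growth inhibition of human NCI-H1650 cells measured by a cell viability assay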
Description: SANGER: Inhibition of human NCI-H1650 cell growth in a cell viability assay.

[44] = test system: SCH; type: functional, cell-based, Homo sapiens; details: Homo sapiens, SCH;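 further: growth inhibition of human SCH cells, read out in a cell viability assay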
Description: SANGER: Inhibition of human SCH cell growth in a cell viability assay.

[45] = test system: NCI-H2052; type: functional, cell-based, Homo sapiens; details: Homo sapiens, NCI-H2052;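 further: growth inhibition of NCI-H2052 cells, read out with a cell viability assay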
Description: SANGER: Inhibition of human NCI-H2052 cell growth in a cell viability assay.

[46] = test system: NCI-H510A; type: functional, cell-based; details: Homo sapiens;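 further: growth inhibition of NCI-H510A cells, read out with a cell viability assay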
Description: SANGER: Inhibition of human NCI-H510A cell growth in a cell viability assay.

[47] = test system: CAL-27; type: functional, cell-based, Homo sapiens; details: Homo sapiens, CAL-27;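 further: Viability-based readout, IC50 reflecting inhibition of CAL-27 cell growth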
Description: SANGER: Inhibition of human CAL-27 cell growth in a cell viability assay.

[48] = test system: 639-V; type: functional, cell-based, Homo sapiens; details: Homo sapiens, 639-V;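 further: growth inhibition of 639-V cells, read out with a cell viability assay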
Description: SANGER: Inhibition of human 639-V cell growth in a cell viability assay.

[49] = test system: QIMR-WIL; type: functional, cell-based; details: Homo sapiens;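 further: growth inhibition of QIMR-WIL cells, read out with a cell viability assay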
Description: SANGER: Inhibition of human QIMR-WIL cell growth in a cell viability assay.

[50] = test system: MFE-280; type: functional, cell-based, Homo sapiens; details: Homo sapiens, MFE-280;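 further: growth inhibition of MFE-280 cells, determined with a cell viability readout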
Description: SANGER: Inhibition of human MFE-280 cell growth in a cell viability assay.

[51] = test system: JEG-3; type: functional, cell-based, Homo sapiens; details: Homo sapiens, JEG-3;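 further: growth inhibition of human JEG-3 cells, read out with a cell viability assay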
Description: SANGER: Inhibition of human JEG-3 cell growth in a cell viability assay.

[52] = test system: U-118-MG; type: functional, cell-based, Homo sapiens; details: Homo sapiens, U-118-MG
Description: SANGER: Inhibition of human U-118-MG cell growth in a cell viability assay.

SMILES: COC(=O)CNC(=O)C(=O)OC
- IC50 [1]: 159 µM
- IC50 [2]: 221 µM
- IC50 [3]: > 4000 µM
- IC50 [4]: 658 µM
- IC50 [5]: 839 µM
- IC50 [6]: 279 µM
- IC50 [7]: 2000 µM
- IC50 [8]: > 4000 µM
- IC50 [9]: 626 µM
- IC50 [10]: 1010 µM
- IC50 [11]: 213 µM
- IC50 [12]: > 4000 µM
- IC50 [13]: 507 µM
- IC50 [14]: > 4000 µM
- IC50 [15]: 151 µM
- IC50 [16]: 150 µM
- IC50 [17]: 1890 µM
- IC50 [18]: 1150 µM
- IC50 [19]: 560 µM
- IC50 [20]: 249 µM
- IC50 [21]: 857 µM
- IC50 [22]: 177 µM
- IC50 [23]: 2720 µM
- IC50 [24]: 688 µM
- IC50 [25]: 1920 µM
- IC50 [26]: 998 µM
- IC50 [27]: > 4000 µM
- IC50 [28]: 264 µM
- IC50 [29]: 1850 µM
- IC50 [30]: 264 µM
- IC50 [31]: 524 µM
- IC50 [32]: 536 µM
- IC50 [33]: > 4000 µM
- IC50 [34]: 774 µM
- IC50 [35]: 6.59 µM
- IC50 [36]: 1780 µM
- IC50 [37]: 659 µM
- IC50 [38]: 277 µM
- IC50 [39]: > 4000 µM
- IC50 [40]: 1740 µM
- IC50 [41]: 636 µM
- IC50 [42]: 178 µM
- IC50 [43]: 329 µM
- IC50 [44]: > 4000 µM
- IC50 [45]: 2880 µM
- IC50 [46]: 237 µM
- IC50 [47]: > 4000 µM
- IC50 [48]: 1520 µM
- IC50 [49]: 424 µM
- IC50 [50]: 1030 µM
- IC50 [51]: 908 µM
- IC50 [52]: 784 µM

SMILES: CN(c1ncccc1CNc1nc(Nc2ccc3c(c2)CC(=O)N3)ncc1C(F)(F)F)S(C)(=O)=O [PF-00562271]
- IC50 [1]: > 2.56 µM
- IC50 [2]: > 2.56 µM
- IC50 [3]: > 2.56 µM
- IC50 [4]: > 2.56 µM
- IC50 [5]: > 2.56 µM
- IC50 [6]: > 2.56 µM
- IC50 [7]: > 2.56 µM
- IC50 [8]: > 2.56 µM
- IC50 [9]: > 2.56 µM
- IC50 [10]: > 2.56 µM
- IC50 [11]: > 2.56 µM
- IC50 [12]: > 2.56 µM
- IC50 [13]: 1.35 µM
- IC50 [14]: > 2.56 µM
- IC50 [15]: > 2.56 µM
- IC50 [16]: > 2.56 µM
- IC50 [17]: > 2.56 µM
- IC50 [18]: > 2.56 µM
- IC50 [19]: > 2.56 µM
- IC50 [20]: > 2.56 µM
- IC50 [21]: > 2.56 µM
- IC50 [22]: > 2.56 µM
- IC50 [23]: > 2.56 µM
- IC50 [24]: > 2.56 µM
- IC50 [25]: > 2.56 µM
- IC50 [26]: > 2.56 µM
- IC50 [27]: > 2.56 µM
- IC50 [28]: > 2.56 µM
- IC50 [29]: > 2.56 µM
- IC50 [30]: > 2.56 µM
- IC50 [31]: > 2.56 µM
- IC50 [32]: > 2.56 µM
- IC50 [33]: > 2.56 µM
- IC50 [34]: > 2.56 µM
- IC50 [35]: > 2.56 µM
- IC50 [36]: > 2.56 µM
- IC50 [37]: > 2.56 µM
- IC50 [38]: 1.63 µM
- IC50 [39]: > 2.56 µM
- IC50 [40]: > 2.56 µM
- IC50 [41]: > 2.56 µM
- IC50 [42]: 1.67 µM
- IC50 [43]: > 2.56 µM
- IC50 [44]: > 2.56 µM
- IC50 [45]: > 2.56 µM
- IC50 [46]: > 2.56 µM
- IC50 [47]: > 2.56 µM
- IC50 [48]: > 2.56 µM
- IC50 [49]: > 2.56 µM
- IC50 [50]: > 2.56 µM
- IC50 [51]: > 2.56 µM
- IC50 [52]: > 2.56 µM

SMILES: Cc1cnc(-c2cnc(NCCNc3ccc(C#N)cn3)nc2-c2ccc(Cl)cc2Cl)[nH]1 [LADUVIGLUSIB]
- IC50 [1]: > 2.56 µM
- IC50 [2]: > 2.56 µM
- IC50 [3]: 0.585 µM
- IC50 [4]: > 2.56 µM
- IC50 [5]: > 2.56 µM
- IC50 [6]: > 2.56 µM
- IC50 [7]: > 2.56 µM
- IC50 [8]: > 2.56 µM
- IC50 [9]: > 2.56 µM
- IC50 [10]: > 2.56 µM
- IC50 [11]: > 2.56 µM
- IC50 [12]: > 2.56 µM
- IC50 [13]: > 2.56 µM
- IC50 [14]: > 2.56 µM
- IC50 [15]: > 2.56 µM
- IC50 [16]: > 2.56 µM
- IC50 [17]: > 2.56 µM
- IC50 [18]: > 2.56 µM
- IC50 [19]: > 2.56 µM
- IC50 [20]: > 2.56 µM
- IC50 [21]: > 2.56 µM
- IC50 [22]: > 2.56 µM
- IC50 [23]: > 2.56 µM
- IC50 [24]: > 2.56 µM
- IC50 [25]: > 2.56 µM
- IC50 [26]: > 2.56 µM
- IC50 [27]: > 2.56 µM
- IC50 [28]: > 2.56 µM
- IC50 [29]: > 2.56 µM
- IC50 [30]: > 2.56 µM
- IC50 [31]: > 2.56 µM
- IC50 [32]: > 2.56 µM
- IC50 [33]: > 2.56 µM
- IC50 [34]: > 2.56 µM
- IC50 [35]: > 2.56 µM
- IC50 [36]: > 2.56 µM
- IC50 [37]: > 2.56 µM
- IC50 [38]: > 2.56 µM
- IC50 [39]: > 2.56 µM
- IC50 [40]: > 2.56 µM
- IC50 [41]: > 2.56 µM
- IC50 [42]: > 2.56 µM
- IC50 [43]: > 2.56 µM
- IC50 [44]: > 2.56 µM
- IC50 [45]: > 2.56 µM
- IC50 [46]: > 2.56 µM
- IC50 [47]: > 2.56 µM
- IC50 [48]: > 2.56 µM
- IC50 [49]: > 2.56 µM
- IC50 [50]: > 2.56 µM
- IC50 [51]: > 2.56 µM
- IC50 [52]: > 2.56 µM
